24h penetration amount data for four compounds are collected here from patent publication US20250152675A1, “I-TYPE RECOMBINANT COLLAGEN WITH HIGH TRANSDERMAL ABSORBABILITY, AND USE THEREOF” (XI'AN GIANT BIOGENE TECHNOLOLGY CO., LTD, priority 2022, published 2025).

The series is described as follows: Transdermal penetration through ex vivo mouse skin in a single-chamber diffusion cell, content by BCA kit. It counts as in vitro ADME, Kunming mice. To be noted: collagen peptide 5 mg/ml in 0.9% NaCl, diffusion area 2.0 cm^2, 37.5° C. Here is the method:
1. Preparation of Mouse Skin Ex Vivo 10 Kunming mice of 20 to 22 g with half male and half […] were used in the experiment. After the mice were killed, the hairs on the abdomen were removed. Then the skin on the hair-removed area was peeled off, stripped of fat and tendons, and rinsed repeatedly with distilled water. After being washed, the mouse skins were rinsed with normal saline, then treated with 10% glycerol, and stored at −20° C. for use (use up within 7 days).
Single-chamber diffusion cell: The effective diffusion area of the diffusion cell is 2.0 cm^2, the volume of the receiving cell is 14 ml, the length of the custom-made stirrer is 1.4 cm, and the receiving solution is 0.9% NaCl solution.
The stored mouse skin was taken out, thawed, washed with normal saline, and sandwiched between the receiving chamber and the supplying chamber, with the medicated side facing the supplying chamber and the skin side facing the receiving chamber. The temperature of the water bath system was adjusted to 37.5° C., and the stirring speed was adjusted to 100 rpm/min. 0.9% NaCl solution pre-warmed at 37° C. was added to the receiving chamber and the air bubbles were exhausted, in order to reduce the interference, the inner surface of the mouse skin was firstly contacted with the receiving solution without medication and all the receiving solution was replaced. Then the 27 collagen peptides synthesized were prepared into 5 mg/ml solutions using 0.9% NaCl respectively, which were injected into the supplying chamber and firmly adhere to the mouse skin respectively. After 24 h, part of the receiving solution was absorbed with a syringe as the sample solution to determine the transdermal amount of collagen peptide.
The BCA kit method was used to determine the polypeptide content in the sample solution. […]

Residues, ends and D or L forms follow the SMILES beside them.

With `CC(C)C[C@H](NC(=O)CNC(=O)[C@H](C)NC(=O)[C@@H](NC(=O)CNC(=O)[C@@H]1CCCN1C(=O)[C@H](CC(C)C)NC(=O)CNC(=O)[C@H](CCCNC(=N)N)NC(=O)[C@H](C)NC(=O)CNC(=O)[C@H](CCC(N)=O)NC(=O)[C@@H]1CCCN1C(=O)CNC(=O)[C@@H]1CCCN1C(=O)[C@@H]1CCCN1C(=O)CNC(=O)[C@H](CCCNC(=N)N)NC(=O)[C@H](CCC(=O)O)NC(=O)CNC(=O)[C@@H]1CCCN1C(=O)[C@H](CCCNC(=N)N)NC(=O)CNC(=O)[C@@H]1CCCN1C(=O)[C@H](CCCCN)NC(=O)CNC(=O)[C@H](C)NC(=O)[C@H](CCC(=O)O)NC(=O)CNC(=O)[C@H](CC(=O)O)NC(=O)[C@H](CC(=O)O)NC(=O)CNC(=O)[C@H](CC(N)=O)NC(=O)[C@H](CCCCN)NC(=O)CN)[C@@H](C)O)C(=O)N1CCC[C@H]1C(=O)O` [compound 2] (H-GKNGDDGEAGKPGRPGERGPPGPQGARGLPGTAGLP-OH; N-terminus and C-terminus assumed), the 24h penetration amount amounted to 2097.44 µg. `CSCC[C@H](NC(=O)CNC(=O)[C@@H]1CCCN1C(=O)[C@H](CC(C)C)NC(=O)CNC(=O)[C@H](C)NC(=O)[C@@H](NC(=O)CNC(=O)[C@@H]1CCCN1C(=O)[C@H](CC(C)C)NC(=O)CNC(=O)[C@H](CCCNC(=N)N)NC(=O)[C@H](C)NC(=O)CNC(=O)[C@H](CCC(N)=O)NC(=O)[C@@H]1CCCN1C(=O)CNC(=O)[C@@H]1CCCN1C(=O)[C@@H]1CCCN1C(=O)CNC(=O)[C@H](CCCNC(=N)N)NC(=O)[C@H](CCC(=O)O)NC(=O)CN)[C@@H](C)O)C(=O)N[C@@H](CCCCN)C(=O)NCC(=O)N[C@@H](Cc1c[nH]cn1)C(=O)N[C@@H](CCCNC(=N)N)C(=O)NCC(=O)N[C@@H](Cc1ccccc1)C(=O)N[C@@H](CO)C(=O)NCC(=O)N[C@@H](CC(C)C)C(=O)N[C@@H](CC(=O)O)C(=O)NCC(=O)N[C@@H](C)C(=O)N[C@@H](CCCCN)C(=O)O` [compound 3] (H-GERGPPGPQGARGLPGTAGLPGMKGHRGFSGLDGAK-OH; N-terminus and C-terminus assumed) registered a 24h penetration amount of 2224.03 µg. As for `CSCC[C@H](NC(=O)[C@H](CCC(N)=O)NC(=O)CNC(=O)[C@@H]1CCCN1C(=O)[C@H](C)NC(=O)CNC(=O)[C@H](CC(N)=O)NC(=O)[C@H](CCC(=O)O)NC(=O)CNC(=O)[C@@H]1CCCN1C(=O)[C@H](CO)NC(=O)CNC(=O)[C@@H]1CCCN1C(=O)[C@H](CCC(=O)O)NC(=O)CNC(=O)[C@H](CCCCN)NC(=O)[C@@H]1CCCN1C(=O)CNC(=O)[C@H](C)NC(=O)[C@@H]1CCCN1C(=O)CNC(=O)[C@H](C)NC(=O)[C@H](CC(=O)O)NC(=O)CNC(=O)[C@H](CCCCN)NC(=O)[C@H](C)NC(=O)CN)C(=O)NCC(=O)N1CCC[C@H]1C(=O)N[C@@H](CCCNC(=N)N)C(=O)NCC(=O)N[C@@H](CC(C)C)C(=O)N1CCC[C@H]1C(=O)NCC(=O)N[C@@H](CCC(=O)O)C(=O)N[C@@H](CCCNC(=N)N)C(=O)O` [compound 4] (H-GAKGDAGPAGPKGEPGSPGENGAPGQMGPRGLPGER-OH; N-terminus and C-terminus assumed), the figure is 2034.78 µg. As for `CSCC[C@H](NC(=O)[C@H](CCC(N)=O)NC(=O)CNC(=O)[C@@H]1CCCN1C(=O)[C@H](C)NC(=O)CNC(=O)[C@H](CC(N)=O)NC(=O)[C@H](CCC(=O)O)NC(=O)CN)C(=O)NCC(=O)N1CCC[C@H]1C(=O)N[C@@H](CCCNC(=N)N)C(=O)NCC(=O)N[C@@H](CC(C)C)C(=O)N1CCC[C@H]1C(=O)NCC(=O)N[C@@H](CCC(=O)O)C(=O)N[C@@H](CCCNC(=N)N)C(=O)NCC(=O)N[C@@H](CCCNC(=N)N)C(=O)N1CCC[C@H]1C(=O)NCC(=O)N[C@@H](C)C(=O)N1CCC[C@H]1C(=O)NCC(=O)N1CCC[C@H]1C(=O)N[C@@H](C)C(=O)NCC(=O)N[C@@H](C)C(=O)N[C@@H](CCCNC(=N)N)C(=O)NCC(=O)N[C@@H](CC(N)=O)C(=O)N[C@@H](CC(=O)O)C(=O)NCC(=O)N[C@@H](C)C(=O)N[C@H](C(=O)O)[C@@H](C)O` [compound 5] (H-GENGAPGQMGPRGLPGERGRPGAPGPAGARGNDGAT-OH; N-terminus and C-terminus assumed), the figure is 2123.45 µg.
